Assay results from patent US12605358B2, “Composition for preventing or treating nervous system diseases comprising compound that inhibits mTOR signaling pathway as active ingredient” (ALIAD BIOPHARMA, priority 2021, dated 2026).

Assays:
Type in all cases: in vivo
5xFAD transgenic mice [1] = assay: Morris water maze test; settings: 5, 10 and 20 mg/kg groups; similar to the normal group
Procedure: 5xFAD animals were administered with HN-1703 at three doses for 14 days to male heterozygotes aged 6 months (all born within 3 days). The behaviors of mice were measured in a dark cycle in which the mice were active while alternating light and dark in a 12-hour cycle in a breeding room chamber, and the mice were freely accessible to food and water and bred in compliance with experimental animal ethical guidelines of Kyung Hee University. […] Behavioral measures were measured in Y-maze, Morris Water Maze, and Passive Avoidance test for 18 days in sequence.
A Morris water maze test designed by Richard Morris to test spatial memory was performed on a round and rust-free pool with a white inner-surface (diameter 120 cm; height 60 cm). […] On the first day, the mice were trained in free swimming for 1 minute without a platform foothold, and from the second day, while the mice were trained for 1 minute to find the platform using a spatial clue above the water tank by dissolving dye in water so as not to see the foothold, 6 mice or more were set to a group and put into a quadrant once after taking a sufficient rest, and measured by a video camera. […] The captured video pictures were analyzed with a video tracking system (Ethovision water maze program, Noldus Information Technology, Wageningen, Netherlands). […]

5xFAD transgenic mice [2] = assay: Senile plaques removal, Thioflavin-S staining of brain slices
Procedure: (§1) 5xFAD animals were administered with HN-1703 at three doses for 14 days to male heterozygotes aged 6 months (all born within 3 days). The behaviors of mice were measured in a dark cycle in which the mice were active while alternating light and dark in a 12-hour cycle in a breeding room chamber, and the mice were freely accessible to food and water and bred in compliance with experimental animal ethical guidelines of Kyung Hee University. In each group, the HN-1703 was intraperitoneally injected at the same time once a day in a volume of 100 μl to 12 mice in a normal group (wild type littermate), 9 5xFAD mice in a vehicle (DMSO administration), 8 5xFAD mice in a 5 mg/kg administered group, 9 5xFAD mice in a 10 mg/kg administered group, and 9 5xFAD mice in a 20 mg/kg administered group. […] In a behavioral measurement room, humidity (40 to 60%) and temperature (22 to 26° C.) were maintained, and reflected light was maintained to avoid sound and light effects. Behavioral measures were measured in Y-maze, Morris Water Maze, and Passive Avoidance test for 18 days in sequence.
(§2) A brain slice immunostaining method was modified and used as described in Heo H et al. (J Ethnopharmacol, 2009). Mice were transcardially perfused with 4% PFA. After being immersed and fixed in 4% PFA for 4 hours, the brain tissue was unfrozen in 30% sucrose, frozen in an optimal cutting temperature (OCT) mixture, and stored at −80° C. Brain tissue slices were sectioned in a coronal direction at a thickness of 35 μm. The brain tissue slices were immersed in a storage solution (30% glycerol, 30% ethylene glycol, PBS) and stored at 4° C. The stored brain slices were permeabilized in 0.5% Triton X-100 for 20 minutes and shaken in 2 N HCl for 30 minutes at 37° C. Then, the brain slices were blocked in a free-floating state for 2 hours in 15% standard serum, 3% bovine serum albumin (BSA, bio-WORLD, Dublin, OH, USA) and 0.1% Triton X-100. The slices were shaken with a first antibody for 16 hours at 4° C. Thereafter, a second antibody complementary to the first antibody was attached at room temperature (22±1° C.) for 45 minutes. Then, the nuclei were washed with physiological saline (PBS) containing 1 μg/ml PI (propidiumiodide, Sigma) or DAPI (1:4000), and then placed on a slide glass and sealed using an aqueous mount, and observed under a confocal scanning microscope for tissue observation (LSM 810 Carl Zeiss, Oberkochen, Germany).
Brain slices segmented in a coronal direction were selected from the front to the back of the brain by one slice every 5 slices, and 5 to 11 slices for each animal's brain were co-stained with thioflavin-S and DAPI.
FIG. 7 is confocal scanning micrographs of the hippocampal dentate gyrus, and the entorhinal cortex and temporal lobe of the cerebral cortex, after staining senile plaques by treating the brain slice with Thioflavin-S, and FIG. 8 illustrates quantifying the entire area and staining intensity of the senile plaques stained with Thioflavin-S.

5xFAD transgenic mice [3] = assay: Neuroinflammation, Iba-1 staining of brain slices; settings: hippocampal dentate gyrus; compared to a 5xFAD-DMSO control group; FIG. 11
Procedure: as §1
A brain slice immunostaining method was modified and used as described in Heo H et al. (J Ethnopharmacol, 2009). Mice were transcardially perfused with 4% PFA. […]

5xFAD transgenic mice [4] = assay: Autophagy activation in neurons and microglia (Iba-1/MAP2/LC3 staining); settings: FIG. 16
Procedure: as §1
as §2, with “Germany). […]” for “Germany).”
FIG. 16 illustrates confocal scanning micrographs of the hippocampal dentate gyrus region after triple staining with an Iba-1 antibody, an MAP2 antibody, and an LC3 antibody, and quantifying the number of LC3+/MAP2+ cells, the number of LC3+/Iba-1+ cells, the number of MAP2+ cells, and the number of Iba-1+ cells.

[5] = compared to the 5xFAD-DMSO control group, FIG. 8

COc1cc(OC)c2c(=O)c3cc4c(cc3oc2c1)OCO4 [HN-1703, 7,9-dimethoxy-10H-[1,3]dioxolo[4,5-b]xanthen-10-one]
water maze latency time after 4 days of training (5xFAD transgenic mice [1]): about 35 seconds | reduction of senile plaques compared to the 5xFAD-DMSO group (5xFAD transgenic mice [2]; 20 mg/kg, dentate gyrus, FIG. 7): ≥ 70% | senile plaques stained with Thioflavin-S (5xFAD transgenic mice [2]; 5 to 20 mg/kg, hippocampal dentate gyrus, entorhinal cortex, temporal lobe, FIG. 7): reduced in a dose-dependent manner | number of senile plaques having sizes of 10 to 20 μm and 20 μm or more (5xFAD transgenic mice [2]; all brain regions tested, compared to the 5xFAD-DMSO control group, FIG. 8): decreased in a dose-dependent manner | entire area of senile plaques (5xFAD transgenic mice [2]; [5]): decreased in a dose-dependent manner | staining intensity of senile plaques (5xFAD transgenic mice [2]; [5]): decreased in a dose-dependent manner | Iba-1 staining (activated microglia) (5xFAD transgenic mice [3]): significantly reduced | activated microglia, Iba-1+ cells (5xFAD transgenic mice [4]; 5 to 20 mg/kg, compared to the 5xFAD-DMSO control group): greatly reduced | number of neurons double-stained with MAP2 and LC3-II (5xFAD transgenic mice [4]): increased in a dose-dependent manner | number of MAP2+ neurons in the dentate gyrus (5xFAD transgenic mice [4]; approaches the WT normal group): increased in a dose-dependent manner | autophagy-activated microglia double-stained with LC3-II (5xFAD transgenic mice [4]; compared to the 5xFAD-DMSO control group, dose-dependent): increased twice or more
